Measurements published in US12649723B2, “Carbonohydrazonoyl dicyanide compounds comprising 2 or more aryl or heteroaryl connected via linker and use thereof” (KOREA INSTITUTE OF SCIENCE AND TECHNOLOGY, priority 2020, dated 2026).

Experiments:
CYP3A4 = target: T1, CYP3A4 (Homo sapiens, UniProt P08684); experiment: Inhibitory effect on CYP coenzyme activity, human liver microsomes; format: in vitro ADME; conditions: compound 10 μM; human liver microsomes 0.25 mg/mL; substrate midazolam; 15 minutes
T1 construct: human liver microsomes (0.25 mg/mL); from tissue; host or cells: human liver microsomes
T1 sequence (P08684 whole entry): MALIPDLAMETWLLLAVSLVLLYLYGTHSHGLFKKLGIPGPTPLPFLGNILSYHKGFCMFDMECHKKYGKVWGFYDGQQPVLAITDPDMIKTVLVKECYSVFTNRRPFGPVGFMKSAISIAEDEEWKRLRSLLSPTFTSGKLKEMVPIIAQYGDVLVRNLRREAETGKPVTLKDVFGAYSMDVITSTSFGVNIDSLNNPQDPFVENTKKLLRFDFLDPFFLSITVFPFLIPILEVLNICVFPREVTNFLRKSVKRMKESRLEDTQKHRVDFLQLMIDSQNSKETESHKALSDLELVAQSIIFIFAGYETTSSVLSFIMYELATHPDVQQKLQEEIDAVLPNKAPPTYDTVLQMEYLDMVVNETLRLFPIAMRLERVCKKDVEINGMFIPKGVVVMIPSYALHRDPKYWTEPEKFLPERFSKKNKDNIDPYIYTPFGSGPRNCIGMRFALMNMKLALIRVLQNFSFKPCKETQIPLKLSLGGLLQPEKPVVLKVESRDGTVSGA
Outline: (§1)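 Activity remaining with 10 μM test compound was determined from MRM-quantified metabolite formation. The reaction used human microsomal protein (0.25 mg/mL) in pH 7.4 buffer with a mixed five-substrate cocktail, a 5-min 37 °C preincubation, and 15 min of NADPH-supported turnover.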

CYP2C9 = target: T2, CYP2C9 (Homo sapiens, UniProt P11712); experiment: as above; format: in vitro ADME; conditions: compound 10 μM; human liver microsomes 0.25 mg/mL; substrate diclofenac; 15 minutes
T2 construct: human liver microsomes (0.25 mg/mL); from tissue; host or cells: human liver microsomes
T2 sequence (P11712 whole entry): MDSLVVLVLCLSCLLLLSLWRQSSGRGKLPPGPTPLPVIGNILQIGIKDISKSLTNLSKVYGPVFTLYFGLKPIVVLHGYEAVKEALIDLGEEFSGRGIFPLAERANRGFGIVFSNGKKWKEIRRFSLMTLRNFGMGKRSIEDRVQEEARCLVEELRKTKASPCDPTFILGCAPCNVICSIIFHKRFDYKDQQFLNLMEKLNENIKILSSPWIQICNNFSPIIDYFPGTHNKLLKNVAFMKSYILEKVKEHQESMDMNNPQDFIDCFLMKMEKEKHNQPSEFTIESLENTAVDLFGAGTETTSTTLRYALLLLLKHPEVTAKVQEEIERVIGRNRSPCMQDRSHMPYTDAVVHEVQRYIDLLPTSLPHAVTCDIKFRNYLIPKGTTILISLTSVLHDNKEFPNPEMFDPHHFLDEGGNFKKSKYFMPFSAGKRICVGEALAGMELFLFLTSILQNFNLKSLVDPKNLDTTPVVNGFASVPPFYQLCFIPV
Outline: as §1

CYP2C19 = target: T3, CYP2C19 (Homo sapiens, UniProt P33261); experiment: as above; format: in vitro ADME; conditions: compound 10 μM; human liver microsomes 0.25 mg/mL; substrate S-mephenytoin; 15 minutes
T3 construct: human liver microsomes (0.25 mg/mL); from tissue; host or cells: human liver microsomes
T3 sequence (P33261 whole entry): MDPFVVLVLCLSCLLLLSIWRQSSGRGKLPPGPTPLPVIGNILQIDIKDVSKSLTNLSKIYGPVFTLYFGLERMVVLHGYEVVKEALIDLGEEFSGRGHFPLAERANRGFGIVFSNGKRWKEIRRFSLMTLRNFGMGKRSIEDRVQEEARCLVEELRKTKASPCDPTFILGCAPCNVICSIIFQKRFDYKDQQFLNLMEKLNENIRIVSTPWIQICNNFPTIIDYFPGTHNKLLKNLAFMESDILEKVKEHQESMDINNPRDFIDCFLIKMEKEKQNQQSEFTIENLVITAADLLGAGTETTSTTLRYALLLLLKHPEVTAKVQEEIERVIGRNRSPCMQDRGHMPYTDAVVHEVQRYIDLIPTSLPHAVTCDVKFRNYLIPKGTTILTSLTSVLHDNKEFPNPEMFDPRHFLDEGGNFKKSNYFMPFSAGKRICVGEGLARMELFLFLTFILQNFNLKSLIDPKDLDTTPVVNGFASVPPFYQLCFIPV
Outline: as §1

CYP2D6 = target: T4, CYP2D6 (Homo sapiens, UniProt P10635); experiment: as above; format: in vitro ADME; conditions: compound 10 μM; human liver microsomes 0.25 mg/mL; substrate dextromethorphan; 15 minutes
T4 construct: human liver microsomes (0.25 mg/mL); from tissue; host or cells: human liver microsomes
T4 sequence (P10635 whole entry): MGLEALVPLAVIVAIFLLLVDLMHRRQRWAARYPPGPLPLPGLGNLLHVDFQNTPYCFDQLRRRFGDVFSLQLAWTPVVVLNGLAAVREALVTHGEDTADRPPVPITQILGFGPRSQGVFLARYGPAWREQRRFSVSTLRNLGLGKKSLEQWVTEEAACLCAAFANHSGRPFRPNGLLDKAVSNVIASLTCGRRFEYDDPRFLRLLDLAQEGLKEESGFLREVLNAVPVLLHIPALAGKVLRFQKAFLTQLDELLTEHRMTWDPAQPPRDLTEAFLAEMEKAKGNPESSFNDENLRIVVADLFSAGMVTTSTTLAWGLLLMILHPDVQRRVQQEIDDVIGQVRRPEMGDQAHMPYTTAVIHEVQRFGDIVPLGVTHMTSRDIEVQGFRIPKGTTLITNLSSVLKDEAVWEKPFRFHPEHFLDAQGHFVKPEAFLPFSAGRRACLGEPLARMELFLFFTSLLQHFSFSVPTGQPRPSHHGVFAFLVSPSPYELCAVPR
Outline: as §1

CYP1A2 = target: T5, CYP1A2 (Homo sapiens, UniProt P05177); experiment: as above; format: in vitro ADME; conditions: compound 10 μM; human liver microsomes 0.25 mg/mL; substrate phenacetin; 15 minutes
T5 construct: human liver microsomes (0.25 mg/mL); from tissue; host or cells: human liver microsomes
T5 sequence (P05177 1-516): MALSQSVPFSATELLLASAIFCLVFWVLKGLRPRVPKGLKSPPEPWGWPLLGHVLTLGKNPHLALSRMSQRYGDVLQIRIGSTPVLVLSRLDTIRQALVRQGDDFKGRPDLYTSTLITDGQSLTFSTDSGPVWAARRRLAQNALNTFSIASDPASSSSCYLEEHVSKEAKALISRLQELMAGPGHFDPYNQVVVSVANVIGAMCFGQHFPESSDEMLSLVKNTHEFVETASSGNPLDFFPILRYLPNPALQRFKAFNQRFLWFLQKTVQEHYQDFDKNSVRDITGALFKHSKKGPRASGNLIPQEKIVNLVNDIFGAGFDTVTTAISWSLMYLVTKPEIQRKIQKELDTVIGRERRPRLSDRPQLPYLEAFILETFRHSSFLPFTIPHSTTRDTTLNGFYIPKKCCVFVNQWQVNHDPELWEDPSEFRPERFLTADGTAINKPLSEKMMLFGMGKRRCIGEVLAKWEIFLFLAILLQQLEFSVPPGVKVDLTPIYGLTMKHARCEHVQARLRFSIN
Outline: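 Read-out is LC-MS/MS (MRM) quantification of marker metabolites, compared between 10 μM compound and vehicle (0 μM). Microsomes (0.25 mg/mL, pH 7.4 phosphate) carried a five-probe cocktail including diclofenac 10 μM, S-mephenytoin 100 μM, dextromethorphan 5 μM and midazolam 2.5 μM, and were incubated 15 min at 37 °C with NADPH.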

[1] = Liver microsome stability; format: in vitro ADME, dog; conditions: amount of substrate remaining; compound 1 μM, 30 minutes, 37° C., NADPH
Procedure: The stability of liver microsomes due to the compounds prepared according to Examples 1 to 175 was confirmed. Specifically, four types of liver microsomes (human, dog, rat, and mouse, each 0.25 mg/mL), a 0.1 M phosphate buffer solution (pH 7.4), and each of the compounds at a concentration of 1 μM were mixed and pre-cultured at 37° C. for 5 minutes and further cultured at 37° C. for 30 minutes together with an NADPH generation system solution added thereto. Thereafter, the reaction was terminated by adding an acetonitrile solution containing an internal standard material (chloropropamide) and centrifuged for 5 minutes (14,000 rpm, 4° C.), and then a supernatant was injected into an LC-MS/MS system for analysis of substrate drugs to thereby evaluate metabolic stability due to 8 types of compounds.
The amount of the substrate remaining after the reaction was analyzed using the Shimadzu Nexera XR system and TSQ Vantage (Thermo). In an HPLC column, Kinetex XB-C18 (2.1 mm×100 mm, particle size of 2.6 μm; Phenomenex, USA) was used, and mobile phases were (A) distilled water containing 0.1% formic acid and (B) acetonitrile containing 0.1% formic acid. Analyst software (version 1.6.3) and Xcalibur (version 1.6.1) were used for data analysis.

Tau-BiFC cells = experiment: Cell viability (cytotoxicity) in tau-BiFC cells, count of stained nuclei; format: cell-based; conditions: compound 10 μM; Forskolin-only group = 100% cell viability
Outline: (§2)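 Aggregation was induced by 30 μM Forskolin co-applied with test compound for 48 h, with screening at 1, 3, 10 μM and dose-response at 0.03–30 μM. Nuclei were stained with Hoechst (2 μg/mL) and counted against Forskolin-only wells for cytotoxicity. Inhibition came from BiFC fluorescence relative to Forskolin-only versus untreated cells, with IC50 by nonlinear regression.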

[2] = Liver microsome stability; format: in vitro ADME, rat; conditions: amount of substrate remaining; compound 1 μM, 30 minutes, 37° C., NADPH
Outline: (§3)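 Human, dog, rat and mouse liver microsomes (0.25 mg/mL) with 1 μM compound in 0.1 M phosphate buffer pH 7.4, preincubated 5 min at 37° C, then incubated 30 min at 37° C with NADPH-generating system. Reaction stopped with acetonitrile containing internal standard; remaining parent quantified by LC-MS/MS.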

tau protein = target: T6, tau protein (Homo sapiens, UniProt P10636); experiment: Tau-BiFC cell model: inhibition of tau protein aggregation; format: cell-based; conditions: for remaining activity at 10 µM: 48 h, compound 10 μM, BiFC fluorescence, Forskolin-only group = 100% tau protein-aggregated state, read-out: Response (% @10 μM); for IC50: Tau BiFC in cells, with Forskolin 30 μM, 48 hours
T6 construct: fused on or other part: Split fluorescent-protein halves for BiFC are fused to tau; In the published tau-BiFC line these are Venus VN173 and VC155
T6 sequence (P10636 2-441 isoform P10636-8 limits assumed): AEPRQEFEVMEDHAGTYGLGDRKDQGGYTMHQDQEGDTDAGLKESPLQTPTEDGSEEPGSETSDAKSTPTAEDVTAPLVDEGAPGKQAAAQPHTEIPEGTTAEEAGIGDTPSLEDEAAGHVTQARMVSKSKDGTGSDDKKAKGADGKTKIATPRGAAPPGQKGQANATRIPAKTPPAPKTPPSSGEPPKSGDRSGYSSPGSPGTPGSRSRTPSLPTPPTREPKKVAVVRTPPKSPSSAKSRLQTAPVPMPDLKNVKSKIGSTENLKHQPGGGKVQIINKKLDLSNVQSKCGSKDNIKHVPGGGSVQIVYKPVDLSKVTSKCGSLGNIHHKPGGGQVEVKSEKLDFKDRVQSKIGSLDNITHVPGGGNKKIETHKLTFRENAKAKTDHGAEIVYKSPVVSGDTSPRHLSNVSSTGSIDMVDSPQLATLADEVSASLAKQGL
Outline: as §2

[3] = Liver microsome stability; format: in vitro ADME, mouse; conditions: amount of substrate remaining; compound 1 μM, 30 minutes, 37° C., NADPH
Outline: as §3

[4] = Liver microsome stability; format: in vitro ADME, human; conditions: amount of substrate remaining; compound 1 μM, 30 minutes, 37° C., NADPH
Outline: as §3

Cc1ccc(NC(=O)c2ccc(NN=C(C#N)C#N)cn2)cn1 [Compound 38, (6-(6-methylpyridin-3-ylcarbamoyl)pyridin-3-yl)carbonohydrazonoyl dicyanide]
CYP3A4 (CYP3A4): 92.4
CYP2C9 (CYP2C9): 49.1
CYP2C19 (CYP2C19): 83.0
CYP2D6 (CYP2D6): >100
CYP1A2 (CYP1A2): 92.5
Dog (%) [1]: 98.8%
Cell viability (% @10 μM) (Tau-BiFC cells): 110.6%
Rat (%) [2]: >100%
remaining activity at 10 µM (tau protein): 0%
IC50 (tau protein): 990 nM
Mouse (%) [3]: 96.4%
Human (%) [4]: 99.1%

Cc1cnc(NC(=O)c2ccc(NN=C(C#N)C#N)cc2)cn1 [Compound 45, (4-(5-methylpyrazin-2-ylcarbamoyl)phenyl)carbonohydrazonoyl dicyanide]
CYP3A4 (CYP3A4): 96.7
CYP2C9 (CYP2C9): 80.8
CYP2C19 (CYP2C19): 83.4
CYP2D6 (CYP2D6): >100
CYP1A2 (CYP1A2): 95.5
Dog (%) [1]: >100%
Cell viability (% @10 μM) (Tau-BiFC cells): 140.5%
Rat (%) [2]: >100%
remaining activity at 10 µM (tau protein): 0%
IC50 (tau protein): 1180 nM
Mouse (%) [3]: >100%
Human (%) [4]: 96.8%

Cc1cncc(NC(=O)c2ccc(NN=C(C#N)C#N)cc2)n1 [Compound 46, (4-(6-methylpyrazin-2-ylcarbamoyl)phenyl)carbonohydrazonoyl dicyanide]
CYP3A4 (CYP3A4): 85.5
CYP2C9 (CYP2C9): 70.4
CYP2C19 (CYP2C19): 83.1
CYP2D6 (CYP2D6): >100
CYP1A2 (CYP1A2): 97.8
Dog (%) [1]: >100%
Cell viability (% @10 μM) (Tau-BiFC cells): 155%
Rat (%) [2]: 86.3%
remaining activity at 10 µM (tau protein): 0%
IC50 (tau protein): 860 nM
Mouse (%) [3]: >100%
Human (%) [4]: >100%
